The text below walks through data of BindingDB's records for patent US10188615 (ACUCELA INC., 2019).

What is called IC50 is the concentration needed to halve the response being measured. The low end stands for inhibition by little substance, the high end for a need for much substance.

In this assay the target is T1, Retinoid isomerohydrolase (Human, UniProt Q16518).
T1 sequence (Q16518 whole entry): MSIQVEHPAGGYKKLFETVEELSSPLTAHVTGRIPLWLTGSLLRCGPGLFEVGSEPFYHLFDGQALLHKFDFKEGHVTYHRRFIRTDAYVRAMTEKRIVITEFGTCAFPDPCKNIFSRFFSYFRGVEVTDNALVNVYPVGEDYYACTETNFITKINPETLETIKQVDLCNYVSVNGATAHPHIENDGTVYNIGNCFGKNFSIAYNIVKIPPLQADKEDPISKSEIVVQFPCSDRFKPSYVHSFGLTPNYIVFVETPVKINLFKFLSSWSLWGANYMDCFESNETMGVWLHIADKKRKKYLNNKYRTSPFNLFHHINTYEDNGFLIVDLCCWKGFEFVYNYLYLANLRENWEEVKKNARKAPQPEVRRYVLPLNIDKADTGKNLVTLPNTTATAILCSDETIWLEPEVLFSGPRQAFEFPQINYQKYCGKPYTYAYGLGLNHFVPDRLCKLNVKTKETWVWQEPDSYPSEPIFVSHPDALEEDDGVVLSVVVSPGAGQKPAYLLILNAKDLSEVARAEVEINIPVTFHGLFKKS
Kind of assay: In Vitro Isomerase Inhibition Assay.
`NCCCc1cccc(OC[C@H]2CCCC[C@H]2O)c1` (relative stereo) [US10188615, Example 147]: the half-inhibitory concentration (IC50) result was “in the range around 55 nM”.

For `NCCCc1cccc(OC[C@@H]2CCCC[C@H]2O)c1` (relative stereo) [US10188615, Example 148], the IC50 result is “in the range around 55 nM”.

As for `NCCOc1cccc(OCc2ccccc2)c1` [US10188615, Example 8], the IC50 result is “in the range around 550 nM”.

With `NCCOc1cccc(OCC2(O)CCCCCC2)c1` [US10188615, Example 18], the IC50 entry is “in the range around 550 nM”.

In the case of `CCCC(CCC)COc1cccc(OCCN)c1` [US10188615, Example 25], the half-inhibitory concentration (IC50) entry is “in the range around 55 nM”.

For the compound `NCCOc1cccc(OCC2(O)CCCCC2)c1` [US10188615, Example 26], the IC50 result was “in the range around 550 nM”.

As for `CCC(O)(CC)COc1cccc(OCCN)c1` [US10188615, Example 31], the IC50 result was “in the range around 550 nM”.

Turning to `CCC(O)(CC)COc1cccc(CCCN)c1` [US10188615, Example 32], the IC50 result was “in the range around 55 nM”.

Regarding `CC(C)CCOc1cccc(CCCN)c1` [US10188615, Example 33], the IC50 result was “in the range around 550 nM”.

As to `CCC(CC)COc1cccc(OCCN)c1` [US10188615, Example 36], the IC50 result was “in the range around 55 nM”.

With `NCCC(O)c1cccc(OCc2ccccc2)c1` (stereo not drawn) [US10188615, Example 37], the half-maximal inhibitory concentration (IC50) result was “in the range around 55 nM”.

`COc1ccccc1COc1cccc(CCCN)c1` [US10188615, Example 38]: the IC50 entry was “in the range around 550 nM”.

Take `COCCOc1cccc(CCCN)c1` [US10188615, Example 40]: the IC50 entry was “in the range around 5500 nM”.

`COCCCCOc1cccc(CCCN)c1` [US10188615, Example 41]: the IC50 entry was “in the range around 550 nM”.

Take `NCCCc1cccc(OCCCCOCc2ccccc2)c1` [US10188615, Example 42]: the IC50 result is “in the range around 5500 nM”.

Turning to `CCCCCOc1cccc(CCCN)c1` [US10188615, Example 44], the IC50 entry is “in the range around 550 nM”.

For `CC(C)CCOc1cccc(OCCN)c1` [US10188615, Example 46], the IC50 entry was “in the range around 55 nM”.

With `NCCOc1cccc(OCCc2ccccc2)c1` [US10188615, Example 47], the IC50 entry is “in the range around 55 nM”.

In the case of `CC[C@H](CN)[C@@H](O)c1cccc(OCC2CCCCC2)c1` [US10188615, Example 49], the IC50 result is “in the range around 55 nM”.

For the compound `CCC(CC)COc1cccc(O[C@H](C)CN)c1` [US10188615, Example 50], the IC50 entry was “in the range around 550 nM”.

Regarding `CCCC(CCC)COc1cccc(O[C@H](C)CN)c1` [US10188615, Example 51], the IC50 entry is “in the range around 550 nM”.

Turning to `C[C@H](CN)Oc1cccc(OCC2CCCC2)c1` [US10188615, Example 52], the IC50 entry is “in the range around 550 nM”.

Take `C[C@H](CN)Oc1cccc(OCC2CCCCC2)c1` [US10188615, Example 53]: the IC50 entry is “in the range around 550 nM”.

For `NCCC(O)c1cccc(OCCc2ccccc2)c1` (stereo not drawn) [US10188615, Example 54], the IC50 result is “in the range around 55 nM”.

Consider `NCCOc1cccc(OCC2CC2)c1` [US10188615, Example 57], for which the IC50 entry is “in the range around 550 nM”.

Take `NCCOc1cccc(OCC2CCC2)c1` [US10188615, Example 58]: the IC50 result was “in the range around 550 nM”.

As for `NCCCc1cccc(OCc2ccccc2)c1` [US10188615, Example 59], the IC50 entry was “in the range around 550 nM”.

For the compound `NCCCc1cccc(OCC2CC2)c1` [US10188615, Example 60], the IC50 result is “in the range around 550 nM”.

For the compound `NCCCc1cccc(OCC2CCC2)c1` [US10188615, Example 61], the IC50 entry is “in the range around 550 nM”.

In the case of `CCC(CC)COc1cccc(O[C@@H](C)CN)c1` [US10188615, Example 62], the IC50 entry was “in the range around 550 nM”.

Consider `CCCC(CCC)COc1cccc(O[C@@H](C)CN)c1` [US10188615, Example 63], for which the IC50 result is “in the range around 550 nM”.

Consider `C[C@@H](CN)Oc1cccc(OCC2CCCC2)c1` [US10188615, Example 64], for which the IC50 result was “in the range around 550 nM”.

Turning to `C[C@@H](CN)Oc1cccc(OCC2CCCCC2)c1` [US10188615, Example 65], the IC50 entry is “in the range around 550 nM”.

Take `CCC(CC)COc1cccc(C[C@H](O)CN)c1` [US10188615, Example 66]: the IC50 entry was “in the range around 55 nM”.

Consider `CCCC(CCC)COc1cccc(C[C@H](O)CN)c1` [US10188615, Example 67], for which the IC50 entry is “in the range around 55 nM”.

As for `CCCC(CCC)COc1cccc(C[C@@H](O)CN)c1` [US10188615, Example 68], the 50% inhibitory concentration (IC50) entry was “in the range around 55 nM”.

For the compound `CCC(CC)COc1cccc(C[C@@H](O)CN)c1` [US10188615, Example 69], the IC50 result was “in the range around 55 nM”.

Regarding `NCCCc1cccc(OCCc2ccccc2)c1` [US10188615, Example 70], the half-maximal inhibitory concentration (IC50) entry was “in the range around 550 nM”.

As to `NCCC(O)c1cccc(OCC2CC2)c1` (stereo not drawn) [US10188615, Example 71], the IC50 entry is “in the range around 55 nM”.

As to `C[C@@H](CN)[C@H](O)c1cccc(OCC2CCCCC2)c1` [US10188615, Example 73], the concentration for half-maximal inhibition (IC50) entry was “in the range around 55 nM”.

For `C[C@@H](CN)[C@@H](O)c1cccc(OCC2CCCCC2)c1` [US10188615, Example 75], the IC50 entry was “in the range around 55 nM”.

For `C[C@H](CN)[C@H](O)c1cccc(OCC2CCCCC2)c1` [US10188615, Example 76], the IC50 result was “in the range around 5500 nM”.

Turning to `COCCOCCOCC(=O)NCCC(O)c1cccc(OCC2CCCCC2)c1` (stereo not drawn) [US10188615, Example 77], the IC50 result was “in the range around 5500 nM”.

`C=C(CCN)c1cccc(OCC2CCCCC2)c1` [US10188615, Example 78]: the IC50 entry was “in the range around 550 nM”.

On to `NCCC(O)(CO)c1cccc(OCC2CCCCC2)c1` (stereo not drawn) [US10188615, Example 79], for which the concentration for half-maximal inhibition (IC50) result was “in the range around 5500 nM”.

As for `NCCC(CO)c1cccc(OCC2CCCCC2)c1` (stereo not drawn) [US10188615, Example 80], the IC50 result is “in the range around 550 nM”.

On to `CC(CCN)c1cccc(OCC2CCCCC2)c1` (stereo not drawn) [US10188615, Example 81], for which the IC50 result was “in the range around 55 nM”.

Consider `COCCCCOc1cccc(OCCN)c1` [US10188615, Example 82], for which the 50% inhibitory concentration (IC50) result is “in the range around 550 nM”.

For `NCCC(O)c1cccc(OCC2CCCCO2)c1` (stereo not drawn) [US10188615, Example 83], the IC50 entry was “in the range around 55 nM”.

Consider `NCCOc1cccc(OCc2c(Cl)cccc2Cl)c1` [US10188615, Example 84], for which the IC50 entry is “in the range around 550 nM”.

Regarding `COCCCOc1cccc(OCCN)c1` [US10188615, Example 85], the IC50 entry was “in the range around 550 nM”.

Take `COCCOc1cccc(C(O)CCN)c1` (stereo not drawn) [US10188615, Example 86]: the IC50 result was “in the range around 550 nM”.

Regarding `NCCOc1cccc(OCCCc2ccccc2)c1` [US10188615, Example 89], the IC50 entry is “in the range around 550 nM”.

With `CCCCCOc1cccc(OCCN)c1` [US10188615, Example 90], the 50% inhibitory concentration (IC50) result was “in the range around 55 nM”.

With `NCCCc1cccc(OCc2c(Cl)cccc2Cl)c1` [US10188615, Example 91], the half-maximal inhibitory concentration (IC50) result is “in the range around 550 nM”.

On to `COc1ccccc1COc1cccc(C(O)CCN)c1` (stereo not drawn) [US10188615, Example 92], for which the IC50 entry was “in the range around 55 nM”.

With `NCCOc1cccc(OCC2CCCCCCC2)c1` [US10188615, Example 93], the IC50 result is “in the range around 55 nM”.

Consider `NCCOc1cccc(OCCCOCc2ccccc2)c1` [US10188615, Example 94], for which the IC50 entry is “in the range around 550 nM”.

Consider `NCCOc1cccc(OCCCO)c1` [US10188615, Example 95], for which the IC50 result is “in the range around 5500 nM”.

On to `NCCCc1cccc(OCCCc2ccccc2)c1` [US10188615, Example 96], for which the IC50 entry is “in the range around 550 nM”.

Take `NCCCc1cccc(OCCCO)c1` [US10188615, Example 98]: the half-inhibitory concentration (IC50) result was “in the range around 5500 nM”.

With `NCCCc1cccc(OCC2CCCCCCC2)c1` [US10188615, Example 99], the IC50 entry is “in the range around 550 nM”.

Regarding `NCCOc1cccc(OCCCCOCc2ccccc2)c1` [US10188615, Example 100], the IC50 entry was “in the range around 5500 nM”.

Turning to `COc1ccccc1COc1cccc(OCCN)c1` [US10188615, Example 101], the IC50 result is “in the range around 550 nM”.

With `NCCCc1cccc(OCCOCc2ccccc2)c1` [US10188615, Example 102], the IC50 entry is “in the range around 550 nM”.

Turning to `NCCCc1cccc(OCC2CCCC2)c1` [US10188615, Example 103], the IC50 entry is “in the range around 55 nM”.

`NCCOc1cccc(OCC2CCCC2)c1` [US10188615, Example 104]: the IC50 result was “in the range around 55 nM”.

Regarding `NCCC(O)c1cccc(OCc2c(Cl)cccc2Cl)c1` (stereo not drawn) [US10188615, Example 105], the IC50 entry was “in the range around 55 nM”.
